The values that follow come from US5171851A, “Imidazole substituted benzoxazine or benzothiazine derivatives” (Dong-A Pharm. Co., Ltd., priority 1990, dated 1992).

For one series, the system named is Spraque-Dawley rats. In words: acute toxicity test in Spraque-Dawley rats. Particulars: rat, in vivo, po, 300 mg/kg. The procedure:
Acute toxicity test of 6-(4-methylimidazol-1-yl)-(4H)-3,1-benzoxazin-2-one was conducted in Spraque-Dawley rats. The test compound was suspended in 5% arabic gum and was administered orally to six rats at a dose of 300 mg/kg body weight. […] Accordingly, LD 50 of the compound is 300 mg/kg or more.

In another series the test system is anesthetized cats. In words: cardiotonic effect on anesthetized cats. It is filed as in vivo, cat. Particulars: Felis catus; for change in vivo at 0.01 mg/kg: 0.01 mg/Kg iv; for change in vivo at 0.03 mg/kg: 0.03 mg/Kg iv; for change in vivo at 0.1 mg/kg: 0.1 mg/Kg iv. On the procedure: Determination of cardiotonic effect on anesthetized cats: Male cats weighing about 3 kg were anesthetized with sodium pentobarbital (30 mg/kg, i.p.). The same anesthetic was infused intravenously at the does of 4 mg/kg/hr in order to maintain the anesthetic state and mechanically ventilated through a cuffed endotracheal tube, chest was opened by a midline incision and a catheter for measuring left ventricular pressure was inserted through apex into left ventricle and the left ventricular pressure was measured. LVdP/dt was determined by use of diffentiator from the left ventricular pressure. Systemic blood pressure was measured by the left femoral artery by a pressure transducer and heart rate was measured by a cardiotachometer triggered by blood pressure pulses. Test compound was injected into the femoral vein by use of cannule. After completion of the surgical procedures, the cats were allowed to recover about 30 minutes before drug administration. These compounds were dissolved in 0.9% physiological saline and diluted with saline. Solvent such as DMSO or DMF was also used, if necessary. Test compound of 0.1 ml/kg was used. Detailed method was reporated in J. Med. Chem. 30. 1279-87(1987).

Series [1] concerns blood-perfused sino-atrial preparation. Put plainly: sinus rate on blood-perfused sino-atrial preparation. More on the design: species or system dog. Conditions: for activation at 0.003 mg: dose 3.0 ug. On the procedure: Determination of sinus rate on blood-perfused sino-atrial preparation: Mongrel gods of either sex weighing 7-12 kg were anesthetized with sodium pentoba rbital (30 mg/kg i.v.). Heparin ob 1000 unit/kg was administered to each animal intravenously and the animals were exsanguinated. Heart was removed and put in Krebs-Henseleit solution. Catheter was inserted into blood vessel between right coronary artery and SA nodes. Right atrium and catheter were together removed. Blood supplied from carotid artery of donor dog of either sex weighing 15-25 kg, was supplied to blood vessel cather from right coronary artery and SA node under constant blood pressure of 100 mmHG by use of Peristaltic pump. The resting tension of right atrial muscle was made to 2g. The sinus rate triggered by spontaneous contraction of atrial muscle was determined on Narco physiograph Narcotrace 4). Detailed method was reported by S. Chiba, et al. in Japanese Pharmacology 25, 433-439(1975). Doses of test compounds were injected into flowing blood in gum tube connected to the near part of the catheter inserted into right coronary artery. The effects on sinus rate were shown as percent compared with the sinus ratio prior to the injection of the test compounds.

The test system of series [2] is blood perfused papillary muscle preparation. In words: contractile power on blood perfused papillary muscle preparation. Particulars: Canis lupus familiaris, read-out: change of contractivity (%); for activation at 0.001 mg: dose 1.0 ug; for activation at 0.01 mg: dose 10.0 ug. The arrangement: species or system dog. The procedure: Determination of contractile power on blood perfused papillary muscle preparation:
Dogs of either sex weighing 7-12 kg were anesthetized with sodium pentobarbital (30 mg/kg, i.v.). Heparin of 1000 unit/kg was administered to each animal intravenously. The animals were exsanguinated and heart was removed. The preparation was perfused through the cannulated anterior septal artery (ASA) with arterial blood from a donor dog at constant pressure of about […]. Donor dogs were anesthetized with sodium pentobarbital (30 mg/kg, i.v.). Heparin of 1000 units/kg was administered intravenously. The papillary muscle was stimulated with rectangular pulses of 5- ms duration and about 1.5 times the threshold voltage at a rate of 120 stimuli/min through bipolar electrodes. Resting tension was made to 2 g. The developed tension of papillary muscle was determined by Isometric tresducer. Detailed method was reporated by Matsumoto in Am J. Physiol. 218, 1459-1463 (1970). Test compound at the doses of 10-30 ul was injected in flowing blood in the gum tube connected to catheter. The inotropic effect of the test compounds was shown by change percent of developed tension compared with that prior to the administration of the test compounds.

Another series deals with ICR mouse. In words: acute toxicity test in ICR mouse. It is filed as in vivo. Particulars: intravenous, 30 mg/kg, five mice. The procedure:
Acute toxicity test of 6-(4-methylimidazol-1-yl)-(4H)-3,1-benzothiazin-2-one was conducted in ICR mouse. The test compound was dissolved in a mixed solvent of saline and DMF (2:1) and was administered intravenously to five mice at a dose of 30 mg/kg body weight. […] Accordingly, LD50 of the compound is 30 mg/kg or more.

The test system of another series is BALB/C mice. Put plainly: acute toxicity test in BALB/C mice. It is filed as in vivo, mouse. Conditions: oral, 200 mg/kg, five mice. On the procedure: Acute toxicity test in mice:
Acute toxicity test of 6-(4-methylimidazol-1-yl)-(4H)-3,1-benzothiazine-2-thione was conducted in BALB/C mice. The test compound was suspended in 5% arabic gum solution and administered orally to five mice at a dose of 200 mg/kg body weight by gastric tubing. […] Accordingly, LD50 of the compound is 200 mg/kg or more.

Where [3] appears, read: Canis lupus familiaris, read-out: change of sinus rate (%).

Like-named read-outs stand apart in the source and are kept apart here.

As to `Cc1cn(-c2ccc3c(c2)COC(=O)N3)cn1` [6-(4-methylimidazol-1-yl)(4H)-3,1-benzoxazin-2-one], the dead animals entry with Spraque-Dawley rats was “no dead animal was found”. The change in vivo at 0.01 mg/kg in the series on anesthetized cats (read-out: HR (%)) is 1.25%; in the series with anesthetized cats (read-out: LV dp/dt (%)), 29.6%; with anesthetized cats (read-out: LVP (%)), 7.69%; in the series on anesthetized cats (read-out: SBP (%)), -4.55%; with anesthetized cats (read-out: dBP), -7.14%; in the series with anesthetized cats (read-out: mBP (%)), -6%. In addition, the change in vivo at 0.03 mg/kg was 1.88% with anesthetized cats (read-out: HR (%)); 85.2% in the series on anesthetized cats (read-out: LV dp/dt (%)); 23.1% in the series with anesthetized cats (read-out: LVP (%)); -9.12% with anesthetized cats (read-out: SBP (%)); -10.7% in the series on anesthetized cats (read-out: dBP); -10.2% in the series on anesthetized cats (read-out: mBP (%)). For the same molecule, the change in vivo at 0.1 mg/kg in the series on anesthetized cats (read-out: HR (%)) is 6.25%; in the series with anesthetized cats (read-out: LV dp/dt (%)), 113%; in the series with anesthetized cats (read-out: LVP (%)) it was 30.8%; with anesthetized cats (read-out: SBP (%)), -15.9%; with anesthetized cats (read-out: dBP) it was -14.3%; in the series with anesthetized cats (read-out: mBP (%)) it was -15%. Further, the activation at 0.001 mg in series [1] (Canis lupus familiaris, dose 1.0 ug, read-out: change of sinus rate (%)) was 0%; in series [2], 2.94%. Further, the activation at 0.003 mg in series [1] (setting [3]) is 2.52%; in series [2] (dose 3.0 ug), 13%. Moreover, the activation at 0.01 mg stood at 5.04% in series [1] (Canis lupus familiaris, dose 10.0 ug, read-out: change of sinus rate (%)) and 30.4% in series [2]. Moreover, in series [1] (at the ED 30 dose), the “change of sinus rate (%)” value was “+5.17%”.
Take `Cc1cn(-c2ccc3c(c2)CSC(=O)N3)cn1` [6-(4-methylimidazol-1-yl)-(4H)-3,1-benzothiazin-2-one]: the change in vivo at 0.01 mg/kg in the series with anesthetized cats (read-out: HR (%)) is 0%; with anesthetized cats (read-out: LV dp/dt (%)), 14.8%; with anesthetized cats (read-out: LVP (%)), 0%; in the series on anesthetized cats (read-out: SBP (%)), -4%; with anesthetized cats (read-out: dBP), -8.5%; in the series on anesthetized cats (read-out: mBP (%)) it was -9.1%. Further, the change in vivo at 0.03 mg/kg was 0.6% in the series with anesthetized cats (read-out: HR (%)); 33.3% with anesthetized cats (read-out: LV dp/dt (%)); 0% with anesthetized cats (read-out: LVP (%)); -10% in the series with anesthetized cats (read-out: SBP (%)); -14.3% with anesthetized cats (read-out: dBP); -12.5% with anesthetized cats (read-out: mBP (%)). In addition, the change in vivo at 0.1 mg/kg is 4.5% with anesthetized cats (read-out: HR (%)); 40.7% with anesthetized cats (read-out: LV dp/dt (%)); 8.2% with anesthetized cats (read-out: LVP (%)); -14% in the series on anesthetized cats (read-out: SBP (%)); -20% in the series on anesthetized cats (read-out: dBP); -17.5% in the series with anesthetized cats (read-out: mBP (%)). Further, the dead animals entry in the series on ICR mouse is “no dead animal was found”. For the same molecule, the activation at 0.003 mg in series [1] (setting [3]) was determined as 2.3%. The activation at 0.03 mg in series [1] (Canis lupus familiaris, dose 30.0 ug, read-out: change of sinus rate (%)) amounted to 5.6%; in series [2] (dose 30.0 ug), 30.7%. In series [2], the activation at 0.001 mg came out at 0%. In series [2], the activation at 0.01 mg was found to be 20.5%.
In the case of `Cc1cn(-c2ccc3c(c2)CSC(=S)N3)cn1` [6-(4-methylimidazol-1-yl)-(4H)-3,1-benzothiazine-2-thione], the change in vivo at 0.01 mg/kg in the series with anesthetized cats (read-out: HR (%)) was 0%; in the series with anesthetized cats (read-out: LV dp/dt (%)), 3.7%; with anesthetized cats (read-out: LVP (%)) it was 0%; in the series with anesthetized cats (read-out: SBP (%)), 4%; with anesthetized cats (read-out: dBP), 4%; in the series on anesthetized cats (read-out: mBP (%)) it was 4%. In addition, the change in vivo at 0.03 mg/kg is 2.1% in the series with anesthetized cats (read-out: HR (%)); 18.5% in the series on anesthetized cats (read-out: LV dp/dt (%)); 0% in the series on anesthetized cats (read-out: LVP (%)); 0% in the series with anesthetized cats (read-out: SBP (%)); -4% with anesthetized cats (read-out: dBP); -3% in the series on anesthetized cats (read-out: mBP (%)). The change in vivo at 0.1 mg/kg in the series on anesthetized cats (read-out: HR (%)) is 3.6%; with anesthetized cats (read-out: LV dp/dt (%)) it was 40.7%; with anesthetized cats (read-out: LVP (%)) it was 1.2%; in the series with anesthetized cats (read-out: SBP (%)) it was -4.7%; in the series with anesthetized cats (read-out: dBP) it was -14%; with anesthetized cats (read-out: mBP (%)) it was -10%. Also, in the series with BALB/C mice, the dead animals entry is listed as “no dead animal was found”.
